Data on three molecules can be found in US9247759B2, “Identification of human T2R receptors that respond to bitter compounds that elicit the bitter taste in compositions, and the use thereof in assays to identify compounds that inhibit (block) bitter taste in compositions and use thereof” (SENOMYX, INC., priority 2007, dated 2016).

Structures are written as SMILES.

One assay deals with hT2R55. Kind of assay: hT2R panel inhibition, transient HEK293 G16g44, agonist Cinchonine 150 μM. The assay is classed as cell-based, human. Particulars: compound at 25 μM; receptor activated to EC80 with the corresponding agonist. An outline of the steps: (§1)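 Receptor activity was measured in functional assays after single-receptor transient transfection; bitter agonists were used at their EC80 levels. A decrease in that activity when the test compound was added was taken as inhibition.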

The subject of another assay is hT2R67. Kind of assay: hT2R panel inhibition, transient HEK293 G16g44, agonist Andrographolide 5 μM. Format: cell-based, human. The following applies: compound at 25 μM; receptor activated to EC80 with the corresponding agonist. In a few lines: as §1
In another assay the target is hT2R64 (Homo sapiens (Human), UniProt P59538). Kind of assay: hT2R panel inhibition, transient HEK293 G16g44, agonist Aristolochic Acid 1 μM. The assay is classed as cell-based. Particulars: HEK293, compound at 25 μM; receptor activated to EC80 with the corresponding agonist; read-out: screening result against bitter receptor 64. In a few lines:
as §1

In a further assay the target is hT2R16 (Homo sapiens (Human), UniProt Q9NYV7). The experiment in a line: hT2R panel inhibition, transient HEK293 G16g44, agonist Salicin 1 mM. The following applies: HEK293, compound at 25 μM; receptor activated to EC80 with the corresponding agonist; read-out: screening result against bitter receptor 16. Format: cell-based. An outline of the steps:
as §1

A further assay addresses hT2R10 (Homo sapiens (Human), UniProt Q9NYW0). Kind of assay: hT2R panel inhibition, transient HEK293 G16g44, agonist Strychnine 50 μM. Format: cell-based. Particulars: HEK293, read-out: screening result against bitter receptor 10, compound at 25 μM; receptor activated to EC80 with the corresponding agonist.
In another assay the target is hT2R51 (Homo sapiens (Human), UniProt P59533). The experiment in a line: hT2R panel inhibition, transient HEK293 G16g44, agonist Prop 2.5 μM. The following applies: HEK293, compound at 25 μM; receptor activated to EC80 with the corresponding agonist; read-out: screening result against bitter receptor 51. Format: cell-based. As for the experimental part:
(§2) Specifically, in order to evaluate the inhibitory selectivity of the Compound C compound, this compound was tested against 22 human T2Rs which were deorphaned by Senomyx. These receptors and the bitter ligands that activate these human T2Rs are reported in earlier patent applications which are incorporated by reference herein. These 22 human T2Rs are hT2R1, 3, 4, 5, 7, 8, 9, 10, 13, 14, 16, 44, 51, 54, 55, 61, 63, 64, 65, 67, 71 and 75. The amino acid and nucleic acid sequences of all of these T2Rs may be found in these earlier patent applications. These human T2Rs were each individually transiently transfected into HEK293 cells that stably express the promiscuous G protein G16g44 and functional assays were effected using these receptors as disclosed in these same patent applications. […] The ligands were used at EC80 concentration levels. The list of bitter ligands utilized and the tested ligand concentrations are contained in Table 5 of this example.
(§3) Relating to the foregoing, FIG. 5 contains experimental results wherein Compound C was tested with different agonist compounds. The inhibition activity is represented by the reduction of receptor activity in the presence of Compound C. […] These 13 hT2Rs are hT2R3, 7, 10, 14, 16, 44, 51, 55, 61, 63, 64, 65, and 71.

The test system of another assay is hT2R65. The experiment in a line: hT2R panel inhibition, transient HEK293 G16g44, agonist Oleuropein 1 mM. Format: cell-based, human. Particulars: compound at 25 μM; receptor activated to EC80 with the corresponding agonist. An outline of the steps:
as §1

In the next assay the target is hT2R3 (Homo sapiens (Human), UniProt Q9NYW6). Kind of assay: hT2R panel inhibition, transient HEK293 G16g44, agonist Chloroquine pH6.5 50 μM. Particulars: HEK293, compound at 25 μM; receptor activated to EC80 with the corresponding agonist; read-out: screening result against bitter receptor 3. The assay is classed as cell-based. An outline of the steps:
as §1

Another assay deals with hT2R61 (Homo sapiens (Human), UniProt P59537). The experiment in a line: hT2R panel inhibition, transient HEK293 G16g44, agonist Aristolochic Acid 25 nM. Format: cell-based. The following applies: HEK293, compound at 25 μM; receptor activated to EC80 with the corresponding agonist; read-out: screening result against bitter receptor 61. An outline of the steps:
as §1

For the next assay, the target named is hT2R71 (Homo sapiens (Human), UniProt P59536). Kind of assay: hT2R panel inhibition, transient HEK293 G16g44, agonist Picric Acid 10 μM. Format: cell-based. The following applies: HEK293, compound at 25 μM; receptor activated to EC80 with the corresponding agonist; read-out: screening result against bitter receptor 71. In a few lines:
as §1

Another assay deals with hT2R54. The experiment in a line: hT2R panel inhibition, transient HEK293 G16g44, agonist Ranitidine 5 mM. The assay is classed as cell-based, human. The following applies: compound at 25 μM; receptor activated to EC80 with the corresponding agonist. In a few lines:
as §1

In a further assay the target is hT2R7 (Homo sapiens (Human), UniProt Q9NYW3). The experiment in a line: hT2R panel inhibition, transient HEK293 G16g44, agonist Chloroquine pH6.5 10 mM. The assay is classed as cell-based. The following applies: HEK293, compound at 25 μM; receptor activated to EC80 with the corresponding agonist; read-out: screening result against bitter receptor 7. An outline of the steps:
as §1

The next assay concerns hT2R63. Kind of assay: hT2R panel inhibition, transient HEK293 G16g44, agonist Caffeine 1 mM or Andrographolide 100 μM. The assay is classed as cell-based, human. The following applies: compound at 25 μM; receptor activated to EC80 with the corresponding agonist. In a few lines: as §1
For another assay, the target named is hT2R5 (Homo sapiens (Human), UniProt Q9NYW4). Kind of assay: hT2R panel inhibition, transient HEK293 G16g44, agonist Picoline 10 mM. Format: cell-based. Particulars: HEK293, compound at 25 μM; receptor activated to EC80 with the corresponding agonist; read-out: screening result against bitter receptor 5. In a few lines: as §1
hT2R5, sequence (Q9NYW4 whole entry): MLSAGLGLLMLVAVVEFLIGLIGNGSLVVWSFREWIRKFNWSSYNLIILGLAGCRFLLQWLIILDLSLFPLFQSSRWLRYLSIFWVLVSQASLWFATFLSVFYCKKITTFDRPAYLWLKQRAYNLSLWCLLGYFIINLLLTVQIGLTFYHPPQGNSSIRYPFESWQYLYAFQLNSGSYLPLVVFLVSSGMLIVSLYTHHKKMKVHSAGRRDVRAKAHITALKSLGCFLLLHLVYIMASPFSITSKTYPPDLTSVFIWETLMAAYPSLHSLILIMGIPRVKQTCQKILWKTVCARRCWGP
Another assay concerns the target hT2R14 (Homo sapiens (Human), UniProt Q9NYV8). The experiment in a line: hT2R panel inhibition, transient HEK293 G16g44, agonist Aristolochic Acid 2 μM. Format: cell-based. Particulars: HEK293, compound at 25 μM; receptor activated to EC80 with the corresponding agonist; read-out: screening result against bitter receptor 14. An outline of the steps: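 Each hT2R was transiently transfected into HEK293 cells stably expressing G16g44 and assayed functionally for inhibition of agonist response. Agonists were applied at EC80: andrographolide at 0.5 mM for hT2R8 and aristolochic acid at 2 μM for hT2R14.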

The target in another assay is hT2R75 (Homo sapiens (Human), UniProt P59540). Kind of assay: hT2R panel inhibition, transient HEK293 G16g44, agonist Strychnine 1 μM. The assay is classed as cell-based. Particulars: HEK293, read-out: screening result against bitter receptor 75, compound at 25 μM; receptor activated to EC80 with the corresponding agonist. On the procedure: as §2, §3
hT2R75, sequence (P59540 whole entry): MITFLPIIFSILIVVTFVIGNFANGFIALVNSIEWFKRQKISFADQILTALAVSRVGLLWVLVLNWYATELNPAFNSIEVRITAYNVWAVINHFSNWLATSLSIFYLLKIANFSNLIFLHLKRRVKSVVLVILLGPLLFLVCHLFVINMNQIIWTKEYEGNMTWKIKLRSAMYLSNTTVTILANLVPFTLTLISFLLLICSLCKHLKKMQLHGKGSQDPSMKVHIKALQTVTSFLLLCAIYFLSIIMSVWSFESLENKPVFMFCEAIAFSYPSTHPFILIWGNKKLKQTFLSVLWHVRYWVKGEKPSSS
A further assay relates to hT2R44. The experiment in a line: hT2R panel inhibition, transient HEK293 G16g44, agonist Denatonium 0.5 μM. The assay is classed as cell-based, human. Particulars: compound at 25 μM; receptor activated to EC80 with the corresponding agonist. In a few lines:
as §1

hT2R10, sequence (Q9NYW0 whole entry): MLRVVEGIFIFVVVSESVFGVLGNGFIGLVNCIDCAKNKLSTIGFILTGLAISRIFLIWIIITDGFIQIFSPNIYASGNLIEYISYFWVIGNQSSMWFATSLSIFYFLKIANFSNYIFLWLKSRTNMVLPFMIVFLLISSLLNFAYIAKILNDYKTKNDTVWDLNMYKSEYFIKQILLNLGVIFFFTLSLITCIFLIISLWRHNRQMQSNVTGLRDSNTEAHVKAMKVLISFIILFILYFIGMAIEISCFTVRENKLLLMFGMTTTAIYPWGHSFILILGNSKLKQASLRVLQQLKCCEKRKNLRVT
hT2R71, sequence (P59536 whole entry): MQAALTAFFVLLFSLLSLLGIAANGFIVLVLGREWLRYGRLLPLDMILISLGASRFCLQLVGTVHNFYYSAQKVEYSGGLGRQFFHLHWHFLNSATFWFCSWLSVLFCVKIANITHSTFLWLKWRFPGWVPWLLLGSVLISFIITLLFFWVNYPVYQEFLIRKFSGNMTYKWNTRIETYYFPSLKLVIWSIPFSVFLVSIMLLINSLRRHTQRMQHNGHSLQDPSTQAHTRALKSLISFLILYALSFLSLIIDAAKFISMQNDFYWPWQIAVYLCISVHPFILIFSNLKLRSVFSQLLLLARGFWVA
hT2R14, sequence (Q9NYV8 whole entry): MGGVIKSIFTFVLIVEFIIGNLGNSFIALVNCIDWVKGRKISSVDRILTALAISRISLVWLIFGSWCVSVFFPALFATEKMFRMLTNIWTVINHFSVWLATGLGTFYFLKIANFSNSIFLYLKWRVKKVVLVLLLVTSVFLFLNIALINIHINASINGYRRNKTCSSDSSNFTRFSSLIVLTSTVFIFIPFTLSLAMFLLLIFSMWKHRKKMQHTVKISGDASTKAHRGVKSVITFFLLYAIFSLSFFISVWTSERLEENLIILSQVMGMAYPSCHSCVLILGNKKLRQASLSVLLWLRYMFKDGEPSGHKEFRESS
hT2R61, sequence (P59537 whole entry): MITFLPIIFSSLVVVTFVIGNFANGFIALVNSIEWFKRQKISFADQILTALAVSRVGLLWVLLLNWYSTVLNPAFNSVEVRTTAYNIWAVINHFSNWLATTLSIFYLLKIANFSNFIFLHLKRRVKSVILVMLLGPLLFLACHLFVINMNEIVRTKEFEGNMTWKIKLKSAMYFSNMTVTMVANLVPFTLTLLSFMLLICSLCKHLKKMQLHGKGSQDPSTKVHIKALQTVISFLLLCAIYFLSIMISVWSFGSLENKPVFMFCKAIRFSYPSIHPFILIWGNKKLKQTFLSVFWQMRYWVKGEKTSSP
hT2R3, sequence (Q9NYW6 whole entry): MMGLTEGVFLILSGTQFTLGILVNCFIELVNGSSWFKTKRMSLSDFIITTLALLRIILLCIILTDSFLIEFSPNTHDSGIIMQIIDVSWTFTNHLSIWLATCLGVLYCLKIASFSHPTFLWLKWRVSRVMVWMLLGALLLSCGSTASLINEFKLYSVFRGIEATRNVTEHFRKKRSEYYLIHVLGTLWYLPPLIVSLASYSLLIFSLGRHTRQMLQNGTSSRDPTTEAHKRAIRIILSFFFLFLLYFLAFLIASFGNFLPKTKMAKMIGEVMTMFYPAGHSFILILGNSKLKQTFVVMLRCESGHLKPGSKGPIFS
hT2R51, sequence (P59533 whole entry): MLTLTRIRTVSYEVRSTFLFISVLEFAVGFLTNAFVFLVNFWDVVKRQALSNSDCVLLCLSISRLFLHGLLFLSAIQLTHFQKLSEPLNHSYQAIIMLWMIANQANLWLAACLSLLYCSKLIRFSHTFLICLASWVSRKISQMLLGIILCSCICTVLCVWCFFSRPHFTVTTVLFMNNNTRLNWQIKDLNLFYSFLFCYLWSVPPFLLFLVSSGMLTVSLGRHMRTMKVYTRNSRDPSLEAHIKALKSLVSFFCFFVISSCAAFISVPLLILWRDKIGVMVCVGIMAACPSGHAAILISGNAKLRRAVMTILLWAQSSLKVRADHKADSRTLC
hT2R64, sequence (P59538 whole entry): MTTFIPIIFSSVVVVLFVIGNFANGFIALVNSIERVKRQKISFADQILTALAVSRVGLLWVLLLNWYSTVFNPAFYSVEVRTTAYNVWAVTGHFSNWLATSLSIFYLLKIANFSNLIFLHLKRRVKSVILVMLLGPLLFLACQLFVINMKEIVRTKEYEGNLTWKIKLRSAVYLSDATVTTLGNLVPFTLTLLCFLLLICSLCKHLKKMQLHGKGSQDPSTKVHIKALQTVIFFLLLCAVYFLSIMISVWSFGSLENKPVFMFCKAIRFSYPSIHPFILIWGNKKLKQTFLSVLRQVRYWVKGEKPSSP
hT2R16, sequence (Q9NYV7 whole entry): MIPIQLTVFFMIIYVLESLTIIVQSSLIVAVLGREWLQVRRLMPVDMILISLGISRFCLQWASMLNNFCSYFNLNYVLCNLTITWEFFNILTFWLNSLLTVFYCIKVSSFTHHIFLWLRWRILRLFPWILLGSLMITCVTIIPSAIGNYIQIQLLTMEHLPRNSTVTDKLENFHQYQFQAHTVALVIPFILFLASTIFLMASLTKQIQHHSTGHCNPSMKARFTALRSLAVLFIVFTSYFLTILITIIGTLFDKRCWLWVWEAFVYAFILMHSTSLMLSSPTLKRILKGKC
hT2R7, sequence (Q9NYW3 whole entry): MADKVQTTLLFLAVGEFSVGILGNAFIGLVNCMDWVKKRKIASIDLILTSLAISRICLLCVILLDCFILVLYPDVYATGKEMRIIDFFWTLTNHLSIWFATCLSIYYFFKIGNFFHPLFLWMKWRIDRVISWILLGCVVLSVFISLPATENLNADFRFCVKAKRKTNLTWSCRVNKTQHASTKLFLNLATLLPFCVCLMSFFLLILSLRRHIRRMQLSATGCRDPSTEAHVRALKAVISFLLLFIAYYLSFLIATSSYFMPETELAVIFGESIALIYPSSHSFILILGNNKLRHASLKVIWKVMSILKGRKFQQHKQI

As to `Cc1cccc(CN(Cc2ccccc2)S(=O)(=O)c2ccc(C(=O)O)cc2)c1` [Example 5-73, 4-(N-benzyl-N-(3-methylbenzyl)sulfamoyl)benzoic acid], the “screening result against bitter receptor 55” value with hT2R55 is on record as “++ (40% to 60% inhibition = ++)”. In addition, the “screening result against bitter receptor 67” value in the assay on hT2R67 is “+ (20% to 40% inhibition = +)”. Also, the inhibition at 25 µM at hT2R64 is 20 to 40%; at hT2R16, 20 to 40%; at hT2R10, 40 to 60%; on hT2R51, > 80%; on hT2R3, 40 to 60%; at hT2R61 it was 60 to 80%. Besides, the inhibition at 25 µM was 40 to 60% on hT2R71; 20 to 40% on hT2R7; 20 to 40% on hT2R5; > 80% at hT2R14; 20 to 40% at hT2R75. Further, the “screening result against bitter receptor 65” value with hT2R65 was “++ (40% to 60% inhibition = ++)”. In addition, the “screening result against bitter receptor 54” value with hT2R54 is “+++ (60% to 80% inhibition = +++)”. In addition, the “screening result against bitter receptor 63” value in the assay with hT2R63 is recorded as “++++ (80% or greater inhibition = ++++)”.
In the case of `CSc1ccc(CN(Cc2ccccc2)S(=O)(=O)c2ccc(C(=O)O)cc2)cc1` [Example 5-78, 4-(N-benzyl-N-(4-(methylthio)benzyl)sulfamoyl)benzoic acid], in the assay with hT2R55, the “screening result against bitter receptor 55” value is reported as “+++ (60% to 80% inhibition = +++)”. Moreover, the “screening result against bitter receptor 67” value in the assay with hT2R67 was “+ (20% to 40% inhibition = +)”. In addition, the inhibition at 25 µM at hT2R64 was 40 to 60%; on hT2R16, 20 to 40%; at hT2R10, 20 to 40%; at hT2R51 it was 20 to 40%; on hT2R3, 20 to 40%; on hT2R61 it was > 80%. For the same molecule, the inhibition at 25 µM at hT2R71 is 40 to 60%; on hT2R5, 20 to 40%; on hT2R14, > 80%; at hT2R75, 20 to 40%. The “screening result against bitter receptor 65” value in the assay on hT2R65 was “+++ (60% to 80% inhibition = +++)”. Besides, in the assay with hT2R44, the “screening result against bitter receptor 44” value is given as “+ (20% to 40% inhibition = +)”. For the same molecule, in the assay with hT2R54, the “screening result against bitter receptor 54” value is listed as “+ (20% to 40% inhibition = +)”. Moreover, the “screening result against bitter receptor 63” value with hT2R63 is recorded as “+++ (60% to 80% inhibition = +++)”.
`O=C(O)c1ccc(S(=O)(=O)N(Cc2ccccc2)Cc2ccccc2Cl)cc1` [Example 5-83, 4-(N-benzyl-N-(2-chlorobenzyl)sulfamoyl)benzoic acid]: the “screening result against bitter receptor 55” value in the assay on hT2R55 is recorded as “+++ (60% to 80% inhibition = +++)”. Further, the “screening result against bitter receptor 67” value in the assay on hT2R67 is given as “++ (40% to 60% inhibition = ++)”. The inhibition at 25 µM was 20 to 40% on hT2R64; 40 to 60% on hT2R16; 40 to 60% on hT2R10; 20 to 40% on hT2R51; 40 to 60% at hT2R3; > 80% at hT2R61. For the same molecule, the inhibition at 25 µM was 20 to 40% on hT2R71; 20 to 40% on hT2R7; 20 to 40% at hT2R5; > 80% at hT2R14; 40 to 60% at hT2R75. For the same molecule, the “screening result against bitter receptor 65” value in the assay on hT2R65 is “+++ (60% to 80% inhibition = +++)”. For the same molecule, the “screening result against bitter receptor 44” value in the assay on hT2R44 is “+ (20% to 40% inhibition = +)”. Besides, the “screening result against bitter receptor 54” value in the assay with hT2R54 was “++ (40% to 60% inhibition = ++)”. Moreover, in the assay with hT2R63, the “screening result against bitter receptor 63” value is “+++ (60% to 80% inhibition = +++)”.
